Laboratory results from patent US20210254056A1, “IDENTIFICATION AND TARGETED MODULATION OF GENE SIGNALING NETWORKS” (CAMP4 THERAPEUTICS CORPORATION, priority 2017, published 2021).

Tested on: hepatocytes
Assay: RNA-seq of hepatocytes treated with Phase III failure compounds
Details: hepatocytes
Description: RNA-seq was performed to determine the effects of the compounds on hepatocytes.
Significance was determined by the criteria of FPKM≥0.5, a log 2(fold-change)≥1, and a […].

## CCC(CC)[C@H](NC(C)=O)[C@@H]1[C@H](O)[C@@H](C(=O)O)C[C@H]1NC(=N)N.O.O.O [peramivir (trihydrate), peramivir]
Gene PTRH2
  RNA-seq results, PTRH2: 0.15
  RNA-seq results: PTRH2: −0.47
Gene PUS1
  RNA-seq results, PUS1: 0.16
  RNA-seq results: PUS1: 0.29
Gene PXMP2
  RNA-seq results, PXMP2: 0.19
  RNA-seq results: PXMP2: −0.29
Gene PXMP4
  RNA-seq results, PXMP4: 0.22
  RNA-seq results: PXMP4: −0.05
Gene RAI1
  RNA-seq results, RAI1: 0.12
  RNA-seq results: RAI1: 0.38
Gene RANBP2
  RNA-seq results, RANBP2: −0.29
  RNA-seq results: RANBP2: −0.16
Gene RASA1
  RNA-seq results, RASA1: −0.13
  RNA-seq results: RASA1: −0.26
Gene RBCK1
  RNA-seq results, RBCK1: 0.64
  RNA-seq results: RBCK1: 0.26
Gene RBM10
  RNA-seq results, RBM10: 0.13
  RNA-seq results: RBM10: 0.11
Gene REN
  RNA-seq results, REN: 0
  RNA-seq results: REN: 0.46
Gene RMND1
  RNA-seq results, RMND1: −0.07
  RNA-seq results: RMND1: −0.47
Gene RMRP
  RNA-seq results, RMRP: 0.54
  RNA-seq results: RMRP: −1.76
Gene RNASEH2A
  RNA-seq results, RNASEH2A: 0.54
  RNA-seq results: RNASEH2A: −0.19
Gene RORC
  RNA-seq results, RORC: 0.4
  RNA-seq results: RORC: 0.58
Gene RPGRIP1L
  RNA-seq results, RPGRIP1L: −0.2
  RNA-seq results: RPGRIP1L: −0.12
Gene RRM2B
  RNA-seq results, RRM2B: −0.53
  RNA-seq results: RRM2B: −0.34
Gene RSAD1
  RNA-seq results, RSAD1: 0.1
  RNA-seq results: RSAD1: 0.11
Gene SAMHD1
  RNA-seq results, SAMHD1: −0.29
  RNA-seq results: SAMHD1: −0.43
Gene SC5D
  RNA-seq results, SC5D: 0.05
  RNA-seq results: SC5D: −0.56
Gene SCARB1
  RNA-seq results, SCARB1: 0.12
  RNA-seq results: SCARB1: 0.11
Gene SCN9A
  RNA-seq results, SCN9A: −0.56
  RNA-seq results: SCN9A: −0.09
Gene SDCCAG8
  RNA-seq results, SDCCAG8: −0.12
  RNA-seq results: SDCCAG8: −0.10
Gene SEPN1
  RNA-seq results, SEPN1: 0.26
  RNA-seq results: SEPN1: −0.02
Gene SERAC1
  RNA-seq results, SERAC1: −0.1
  RNA-seq results: SERAC1: −0.34
Gene SERPINA1
  RNA-seq results, SERPINA1: −0.03
  RNA-seq results: SERPINA1: −0.16
Gene SERPING1
  RNA-seq results, SERPING1: 0.12
  RNA-seq results: SERPING1: −0.27
Gene SERPINI1
  RNA-seq results, SERPINI1: −0.33
  RNA-seq results: SERPINI1: −0.37
Gene SETBP1
  RNA-seq results, SETBP1: −0.1
  RNA-seq results: SETBP1: 0.05
Gene SFXN4
  RNA-seq results, SFXN4: 0.09
  RNA-seq results: SFXN4: −0.17
Gene SLC2A1
  RNA-seq results, SLC2A1: 0.56
  RNA-seq results: SLC2A1: 0.08
Gene SLC2A2
  RNA-seq results, SLC2A2: −0.62
  RNA-seq results: SLC2A2: −0.24
Gene SLC2A9
  RNA-seq results, SLC2A9: 0.24
  RNA-seq results: SLC2A9: 0.16
Gene SLC4A4
  RNA-seq results, SLC4A4: −0.08
  RNA-seq results: SLC4A4: −0.30
Gene SLC6A6
  RNA-seq results, SLC6A6: 0.1
  RNA-seq results: SLC6A6: −0.29
Gene SLC6A8
  RNA-seq results, SLC6A8: 0.26
  RNA-seq results: SLC6A8: 0.27
Gene SLC6A20
  RNA-seq results, SLC6A20: 0.4
  RNA-seq results: SLC6A20: −0.44
Gene SLC7A7
  RNA-seq results, SLC7A7: −0.01
  RNA-seq results: SLC7A7: 0.03
Gene SLC10A1
  RNA-seq results, SLC10A1: −0.05
  RNA-seq results: SLC10A1: −0.14
Gene SLC10A3
  RNA-seq results, SLC10A3: 0.11
  RNA-seq results: SLC10A3: 0.57
Gene SLC10A5
  RNA-seq results, SLC10A5: −0.66
  RNA-seq results: SLC10A5: 0.46
Gene SLC10A7
  RNA-seq results, SLC10A7: −0.13
  RNA-seq results: SLC10A7: −0.54
Gene SLC11A2
  RNA-seq results, SLC11A2: 0.08
  RNA-seq results: SLC11A2: 0.04
Gene SLC19A1
  RNA-seq results, SLC19A1: 0.2
  RNA-seq results: SLC19A1: 0.05
Gene SLC19A2
  RNA-seq results, SLC19A2: 0.09
  RNA-seq results: SLC19A2: −0.17
Gene SLC19A3
  RNA-seq results, SLC19A3: 0
  RNA-seq results: SLC19A3: −0.16
Gene SLC22A1
  RNA-seq results, SLC22A1: 0.13
  RNA-seq results: SLC22A1: −0.12
Gene SLC22A5
  RNA-seq results, SLC22A5: 0.12
  RNA-seq results: SLC22A5: −0.16
Gene SLC25A1
  RNA-seq results, SLC25A1: 0.16
  RNA-seq results: SLC25A1: 0.33
Gene SLC25A10
  RNA-seq results, SLC25A10: 0.09
  RNA-seq results: SLC25A10: 0.12
Gene SLC25A12
  RNA-seq results, SLC25A12: 0.29
  RNA-seq results: SLC25A12: 0.27
Gene SLC25A13
  RNA-seq results, SLC25A13: 0.11
  RNA-seq results: SLC25A13: −0.17
Gene SLC25A15
  RNA-seq results, SLC25A15: −0.01
  RNA-seq results: SLC25A15: 0.03
Gene SLC25A19
  RNA-seq results, SLC25A19: −0.01
  RNA-seq results: SLC25A19: −0.19
Gene SLC25A20
  RNA-seq results, SLC25A20: −0.1
  RNA-seq results: SLC25A20: −0.32
Gene SLC25A29
  RNA-seq results, SLC25A29: 0.22
  RNA-seq results: SLC25A29: 0.65
Gene SLC25A32
  RNA-seq results, SLC25A32: −0.09
  RNA-seq results: SLC25A32: −0.32
Gene SLC27A2
  RNA-seq results, SLC27A2: −0.21
  RNA-seq results: SLC27A2: −0.36
Gene SLC27A5
  RNA-seq results, SLC27A5: 0.25
  RNA-seq results: SLC27A5: 0.13
Gene SLC29A3
  RNA-seq results, SLC29A3: 0.07
  RNA-seq results: SLC29A3: −0.02
Gene SLC33A1
  RNA-seq results, SLC33A1: 0.02
